Experimental findings from paper PMC6435334 (Nature chemical biology, 2018) are described below.

For assay [1], the target named is D-apionate lactonase / D-apionolactonase (A6X3G3, "hypothetical" protein) (Brucella anthropi, UniProt A6X3G3).
Assay [2] deals with D-apiose dehydrogenase (B9JK80) (Martinezella rhizogenes, UniProt B9JK80). The experiment in a line: NADH formation, […] nm. In kind it is biochemical. As to conditions: 1.5 mM NAD+; 50 mM Tris-HCl pH 8.5; 25 °C; furanose D-apiose.

The structures appear in SMILES notation.

Sequence of D-apiose dehydrogenase (B9JK80) (B9JK80 whole entry): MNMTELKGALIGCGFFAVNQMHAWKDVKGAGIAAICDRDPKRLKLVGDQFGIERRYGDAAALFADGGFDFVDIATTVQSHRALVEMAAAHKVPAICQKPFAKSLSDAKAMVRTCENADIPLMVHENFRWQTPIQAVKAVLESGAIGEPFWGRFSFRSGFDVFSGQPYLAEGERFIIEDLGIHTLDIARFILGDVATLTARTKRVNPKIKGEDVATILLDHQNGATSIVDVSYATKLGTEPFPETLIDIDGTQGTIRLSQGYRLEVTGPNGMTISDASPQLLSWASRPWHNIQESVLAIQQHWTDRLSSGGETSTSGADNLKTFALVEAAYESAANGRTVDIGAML
Sequence of D-apionate lactonase / D-apionolactonase (A6X3G3, "hypothetical" protein) (A6X3G3 whole entry, looked up, one chain of several): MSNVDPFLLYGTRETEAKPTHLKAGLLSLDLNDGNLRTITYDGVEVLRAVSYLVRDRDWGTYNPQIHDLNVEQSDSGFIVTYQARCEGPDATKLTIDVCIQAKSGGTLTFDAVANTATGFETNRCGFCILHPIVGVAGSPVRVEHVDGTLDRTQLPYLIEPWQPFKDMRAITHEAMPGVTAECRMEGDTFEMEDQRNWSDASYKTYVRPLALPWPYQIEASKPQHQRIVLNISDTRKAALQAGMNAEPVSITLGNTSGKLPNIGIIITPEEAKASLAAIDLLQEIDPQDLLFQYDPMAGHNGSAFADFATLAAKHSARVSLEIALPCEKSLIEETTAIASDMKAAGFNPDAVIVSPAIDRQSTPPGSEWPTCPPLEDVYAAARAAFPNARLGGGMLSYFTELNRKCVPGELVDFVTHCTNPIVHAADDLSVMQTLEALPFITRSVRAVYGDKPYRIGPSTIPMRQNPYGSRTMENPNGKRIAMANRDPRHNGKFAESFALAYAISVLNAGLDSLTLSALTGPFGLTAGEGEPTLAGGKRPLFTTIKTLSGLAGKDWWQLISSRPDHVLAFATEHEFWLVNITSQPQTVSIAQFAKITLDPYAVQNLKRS

As for `O=C1OCC(O)(CO)[C@H]1O` (stereo partly drawn) [D-apionolactone], the “1H NMR, D-apionolactone generated in situ by B9JK80” value in assay [1] is “it hydrolyzed D-apionolactone to D-apionate”.

As for `O=C[C@H](O)C(O)(CO)CO` [D-apiose], the KM entry in assay [2] is recorded as “(B9JK80) catalyzed oxidation of D-apiose to D-apionolactone using NAD^+”.
